For the assay, the target named is T1, B6T173 (ZmPrx35) (Zea mays, UniProt B6T173).
T1 construct: recombinant from p84C3 cDNA, amplified from start codon to stop codon, pET19b (His-tag), E. coli BL21 (DE3) Rosetta gami; class III peroxidase
The assay can be described thus: in-gel guaiacol-H2O2 activity staining of IMAC fractions. It is filed as biochemical. To be noted: H2O2 co-substrate; 20 mM guaiacol, 50 mM phosphate pH 6.8.

T1 sequence (B6T173 1-339): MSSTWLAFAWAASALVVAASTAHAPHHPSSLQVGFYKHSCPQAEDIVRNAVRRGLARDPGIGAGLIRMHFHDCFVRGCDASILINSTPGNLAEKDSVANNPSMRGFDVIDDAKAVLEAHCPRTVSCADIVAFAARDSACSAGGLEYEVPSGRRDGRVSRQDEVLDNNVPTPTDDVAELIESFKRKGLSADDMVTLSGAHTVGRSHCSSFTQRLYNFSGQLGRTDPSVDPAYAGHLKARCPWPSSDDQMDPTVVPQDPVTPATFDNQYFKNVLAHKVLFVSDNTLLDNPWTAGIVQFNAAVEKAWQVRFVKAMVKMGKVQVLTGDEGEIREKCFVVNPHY

With `COc1ccccc1O` [guaiacol], the “in-gel guaiacol-H2O2 activity staining of IMAC fractions” value is listed as “Guaiacol-H2O2 staining of the same POD fractions”.

These data come from publication PMC4553411, “Identification of B6T173 (ZmPrx35) as the prevailing peroxidase in highly insect-resistant maize (Zea mays, p84C3) kernels by activity-directed purification” (Frontiers in Plant Science, 2015).
